Laboratory results published in US8809331B2 (Genentech, Inc., priority 2011, dated 2014).

What follows are compounds tested against T1, LRRK2 (Homo sapiens, UniProt Q5S007, G2019S) (assay: In Vitro LRRK2 LabChip Assay (LRRK2 Ki)). Conditions: Table 5 compounds (formula I).
T1 construct: purchased Invitrogen PV4882
Format: biochemical
Procedure: In Vitro LRRK2 LabChip Assay
This assay was used to determine a compound's potency in inhibiting activity of LRRK2 by determining, Kiapp, IC50, or percent inhibition values. In a polypropylene plate, LRRK2, fluorescently-labeled peptide substrate, ATP and test compound were incubated together. Using a LabChip 3000 (Caliper Life Sciences), after the reaction the substrate was separated by capillary electrophoresis into two populations: phosphorylated and unphosphorylated. The relative amounts of each were quantitated by fluorescence intensity. LRRK2 Ki was determined according to the equation: Y=V0*(1−((x+Ki*(1+S/Km)+Et)/(2*Et)−(((x+Ki*(1+S/Km)+Et)^2−(4*Et*x))^0.5)/(2*Et))). Ki values in Table 4 and elsewhere herein are shown in μM.
Assay conditions and materials used were as follows:
LRRK2 Wild type in 5 mM MgCl2: 15 nM (Invitrogen lot #500607F)
Kinase reaction time: 2 hours
Wild type in 5 mM MgCl2: 80 μM
Solid Support: Black 50 μL volume polypropylene 384 well plate (MatriCal cat # MP101-1-PP)
Kinase: LRRK2 G2019S (Invitrogen cat #PV4882). • LRRK2 Wild type (Invitrogen cat #PV4874).
Substrate: 5FAM-[…]-CONH2
Non-binding plate: 384 well clear V-bottom polypropylene plates (Greiner cat #781280).
ATP: 10 mM ATP (Cell Signaling cat #9804).
Coating Reagent #3: Coating Reagent #3 (Caliper).
Complete Reaction Buffer: H2O/25 mM Tris, pH 8.0/5 mM MgCl2/2 mM DTT/0.01% Triton X-100.
Stop Solution: H2O/100 mM HEPES, pH 7.2/0.015% Brij-35/0.2% Coating Reagent #3/20 mM EDTA.
Separation Buffer: H2O/100 mM HEPES, pH 7.2/0.015% Brij-35/0.1% Coating Reagent #3/1:200 Coating Reagent #8/10 mM EDTA/5% DMSO.
Compound Plate Preparation:
For serial dilutions, 34.6 μl DMSO was added to columns 3-24. For the assay controls, 37.5 μl DMSO was added to columns 1 and 2 of rows A and P. a, d and 50 μl 25 μM G-028831 (Staurosporine) was added to columns 1 and 2, row B. For the samples: to start at 100 μM, 37.5 μl DMSO was to columns 1 and 2, then 12.5 μl 10 mM compound; to start at 10 μM, 78 μl DMSO was added to columns 1 & 2, then 2 μl 10 mM compound; and to start at 1 μM, 25 μM compound (2 μl 10 mM cmpd+798 μl DMSO) was added to empty columns 1 and 2. A Precision instrument was used to perform 1:3.16 serial dilutions (“PLK_BM_serial_halflog”).
ATP was diluted to 282.1 μM in Complete Kinase Buffer (final concentration was 130 μM).
Total and Blank Preparation:
In Complete Reaction Buffer, substrate was diluted to 4 μM. Equal volumes of Complete Reaction Buffer and 4 μM substrate were combined to obtain the blank. Equal volumes of Complete Reaction Buffer and 4 μM substrate were combined and to the combined solution was added 2× final LRRK2 concentration.
To a 50 μl polypropylene plate, 5 μl/well buffer/substrate was added by hand to Blank wells. A Biomek FX was used to start the kinase reaction (“PLK SAR 23 ATP”). The following were added to the appropriate wells:
5 μl/well compound/ATP in Assay Plate;
5 μl/well kinase/substrate in Assay Plate;
The plate was incubated for 2 hours in the dark. Biomek FX was used to stop the kinase reaction (“PLK Stop”), and 10 μl/well Stop solution was added to the Assay Plate. Results were read on the LabChip 3000.
The LabChip 3000 was run using the job “LRRK2 IC50” with the following job settings:
Downstream voltage: −500 V
Upstream voltage: −2350 V
Post sample buffer sip time: 75 seconds
Post dye buffer sip time: 75 seconds
Final delay time: 200 seconds

T1 sequence (Q5S007 whole entry G2019S): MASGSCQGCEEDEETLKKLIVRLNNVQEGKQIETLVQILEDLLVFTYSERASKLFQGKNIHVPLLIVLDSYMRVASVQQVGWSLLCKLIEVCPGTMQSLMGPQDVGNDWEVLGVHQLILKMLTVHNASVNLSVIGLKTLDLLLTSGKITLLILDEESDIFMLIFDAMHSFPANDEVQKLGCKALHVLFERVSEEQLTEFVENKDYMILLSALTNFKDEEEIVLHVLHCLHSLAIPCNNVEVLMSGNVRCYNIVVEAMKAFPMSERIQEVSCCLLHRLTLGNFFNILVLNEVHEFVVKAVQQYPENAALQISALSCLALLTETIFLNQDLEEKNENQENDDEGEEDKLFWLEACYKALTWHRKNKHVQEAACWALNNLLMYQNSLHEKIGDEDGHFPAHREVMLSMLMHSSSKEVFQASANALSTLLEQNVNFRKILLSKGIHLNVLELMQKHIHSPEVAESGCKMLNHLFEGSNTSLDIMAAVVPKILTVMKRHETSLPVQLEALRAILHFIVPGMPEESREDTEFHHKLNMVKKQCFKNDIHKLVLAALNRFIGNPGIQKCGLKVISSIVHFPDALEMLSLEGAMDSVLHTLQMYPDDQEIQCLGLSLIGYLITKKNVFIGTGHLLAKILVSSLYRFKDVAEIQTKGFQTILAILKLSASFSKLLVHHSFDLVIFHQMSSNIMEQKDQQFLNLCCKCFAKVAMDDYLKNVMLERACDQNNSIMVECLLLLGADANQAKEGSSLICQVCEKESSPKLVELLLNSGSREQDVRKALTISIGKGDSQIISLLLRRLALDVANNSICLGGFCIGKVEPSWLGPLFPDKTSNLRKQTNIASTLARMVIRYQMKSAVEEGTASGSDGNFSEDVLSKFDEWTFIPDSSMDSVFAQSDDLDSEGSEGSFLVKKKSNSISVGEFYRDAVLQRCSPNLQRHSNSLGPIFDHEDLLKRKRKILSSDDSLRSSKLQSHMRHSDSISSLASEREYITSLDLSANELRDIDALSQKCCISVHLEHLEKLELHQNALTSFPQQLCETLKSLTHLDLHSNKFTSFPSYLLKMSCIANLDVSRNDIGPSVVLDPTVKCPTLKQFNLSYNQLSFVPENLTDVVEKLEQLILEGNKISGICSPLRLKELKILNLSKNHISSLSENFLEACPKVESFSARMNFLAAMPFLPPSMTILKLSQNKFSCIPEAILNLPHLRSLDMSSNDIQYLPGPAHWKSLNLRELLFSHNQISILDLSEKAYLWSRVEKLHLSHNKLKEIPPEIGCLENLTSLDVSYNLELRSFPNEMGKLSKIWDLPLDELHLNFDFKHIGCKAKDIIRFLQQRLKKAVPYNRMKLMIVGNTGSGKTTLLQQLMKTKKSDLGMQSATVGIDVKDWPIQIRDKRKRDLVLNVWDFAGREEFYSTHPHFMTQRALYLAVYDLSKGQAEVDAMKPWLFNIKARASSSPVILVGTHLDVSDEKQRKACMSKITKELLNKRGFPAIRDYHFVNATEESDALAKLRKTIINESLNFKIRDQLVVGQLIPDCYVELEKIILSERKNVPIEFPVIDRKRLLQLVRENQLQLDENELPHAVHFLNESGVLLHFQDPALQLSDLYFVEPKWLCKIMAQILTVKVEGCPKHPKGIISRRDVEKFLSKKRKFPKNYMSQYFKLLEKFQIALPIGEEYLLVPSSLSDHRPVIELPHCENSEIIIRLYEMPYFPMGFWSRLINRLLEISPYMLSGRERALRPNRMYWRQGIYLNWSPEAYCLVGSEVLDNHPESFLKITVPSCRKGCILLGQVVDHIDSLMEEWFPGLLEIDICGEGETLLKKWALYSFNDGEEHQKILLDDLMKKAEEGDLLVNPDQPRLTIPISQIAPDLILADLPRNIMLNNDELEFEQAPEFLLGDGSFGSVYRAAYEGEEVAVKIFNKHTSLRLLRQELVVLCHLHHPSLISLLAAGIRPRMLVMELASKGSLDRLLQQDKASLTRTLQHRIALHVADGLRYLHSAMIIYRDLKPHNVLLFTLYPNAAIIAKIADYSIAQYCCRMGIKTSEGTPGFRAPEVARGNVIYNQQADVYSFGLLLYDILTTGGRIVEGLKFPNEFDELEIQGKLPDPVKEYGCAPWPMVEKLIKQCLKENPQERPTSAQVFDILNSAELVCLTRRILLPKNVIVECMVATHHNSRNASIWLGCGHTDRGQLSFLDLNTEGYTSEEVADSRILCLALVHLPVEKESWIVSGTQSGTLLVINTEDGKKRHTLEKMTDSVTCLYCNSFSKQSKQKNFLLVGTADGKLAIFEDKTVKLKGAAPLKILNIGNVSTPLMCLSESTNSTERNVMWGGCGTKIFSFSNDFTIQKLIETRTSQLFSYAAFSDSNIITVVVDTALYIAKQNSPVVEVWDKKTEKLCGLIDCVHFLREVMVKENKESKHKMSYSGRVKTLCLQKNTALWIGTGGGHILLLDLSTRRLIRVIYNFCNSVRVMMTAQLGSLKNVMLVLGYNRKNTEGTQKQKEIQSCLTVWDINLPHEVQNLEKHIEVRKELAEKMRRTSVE

Row | Structure (SMILES) | Ki
1 | COc1cc(C(=O)N2CCOCC2)c(F)cc1Nc1ncc(C(F)(F)F)c(OC)n1 [Compound 50, [2-Fluoro-5-methoxy-4-(4-methoxy-5-trifluoromethyl-pyrimidin-2-ylamino)-phenyl]-morpholin-4-yl-methanone] | 33.3 nM
2 | O=C(c1ccc(Nc2ncc(C(F)(F)F)c(NC3CC3)n2)c(F)c1F)N1CCOCC1 [Compound 51, [4-(4-Cyclopropylamino-5-trifluoromethyl-pyrimidin-2-ylamino)-2,3-difluoro-phenyl]-morpholin-4-yl-methanone] | 2.28 nM
3 | O=C(c1cc(F)c(Nc2ncc(C(F)(F)F)c(NC3CC3)n2)cc1F)N1CCOCC1 [Compound 52, [4-(4-Cyclopropylamino-5-trifluoromethyl-pyrimidin-2-ylamino)-2,5-difluoro-phenyl]-morpholin-4-yl-methanone] | 3.35 nM
4 | CNc1nc(Nc2cc(Cl)c(C(=O)N3CCOCC3)cc2F)ncc1C(F)(F)F [Compound 53, [2-Chloro-5-fluoro-4-(4-methylamino-5-trifluoromethyl-pyrimidin-2-ylamino)-phenyl]-morpholin-4-yl-methanone] | 19.6 nM
5 | CCNc1nc(Nc2ccc(C(=O)N3CC[C@H](F)C3)cc2OC)ncc1C#N [Compound 54, 4-Ethylamino-2-[4-((S)-3-fluoro-pyrrolidine-1-carbonyl)-2-methoxy-phenylamino]-pyrimidine-5-carbonitrile] | 82.5 nM
6 | CNc1nc(Nc2cc(OC)c(C(=O)N(C)c3cnn(C)c3)cc2Cl)ncc1C(F)(F)F [Compound 55, 5-Chloro-2-methoxy-N-methyl-4-(4-methylamino-5-trifluoromethyl-pyrimidin-2-ylamino)-N-(1-methyl-1H-pyrazol-4-yl)-benzamide] | 14.5 nM
7 | CCNc1nc(Nc2cc(OC)c(C(=O)N3CCC(F)(F)C3)cc2OC)ncc1C(F)(F)F [Compound 56, (3,3-Difluoro-pyrrolidin-1-yl)-[4-(4-ethylamino-5-trifluoromethyl-pyrimidin-2-ylamino)-2,5-dimethoxy-phenyl]-methanone] | 1.13 nM
8 | COc1nc(Nc2ccc(C(=O)N3CCOCC3)cc2OCCF)ncc1Cl [Compound 57, [4-(5-Chloro-4-methoxy-pyrimidin-2-ylamino)-3-(2-fluoro-ethoxy)-phenyl]-morpholin-4-yl-methanone] | 14.5 nM
9 | CNc1nc(Nc2cc(OC)c(C(=O)N3CCOCC3)cc2C)ncc1C(F)(F)F [Compound 58, [2-Methoxy-5-methyl-4-(4-methylamino-5-trifluoromethyl-pyrimidin-2-ylamino)-phenyl]-morpholin-4-yl-methanone] | 5.63 nM
10 | CCNc1nc(Nc2cc(Cl)c(C(=O)N3CCOCC3)cc2F)ncc1C(F)(F)F [Compound 59, [2-Chloro-4-(4-ethylamino-5-trifluoromethyl-pyrimidin-2-ylamino)-5-fluoro-phenyl]-morpholin-4-yl-methanone] | 4.31 nM
11 | CNc1nc(Nc2ccc(C(=O)N3CCOCC3)c(F)c2Cl)ncc1C(F)(F)F [Compound 60, [3-Chloro-2-fluoro-4-(4-methylamino-5-trifluoromethyl-pyrimidin-2-ylamino)-phenyl]-morpholin-4-yl-methanone] | 14.2 nM
12 | CCNc1nc(Nc2cc(OC)c(C(=O)N3CCC(F)(F)C3)cc2OCCF)ncc1C(F)(F)F [Compound 61, (3,3-Difluoro-pyrrolidin-1-yl)-[4-(4-ethylamino-5-trifluoromethyl-pyrimidin-2-ylamino)-5-(2-fluoro-ethoxy)-2-methoxy-phenyl]-methanone] | 1.03 nM
13 | CCNc1nc(Nc2cc(F)c(C(=O)N3CCOCC3)c(F)c2OC)ncc1C(F)(F)F [Compound 62, [4-(4-Ethylamino-5-trifluoromethyl-pyrimidin-2-ylamino)-2,6-difluoro-3-methoxy-phenyl]-morpholin-4-yl-methanone] | 9.08 nM
14 | CNc1nc(Nc2cc(F)c(C(=O)N3CCOCC3)c(F)c2OC)ncc1C(F)(F)F [Compound 63, [2,6-Difluoro-3-methoxy-4-(4-methylamino-5-trifluoromethyl-pyrimidin-2-ylamino)-phenyl]-morpholin-4-yl-methanone] | 24.3 nM
15 | CCOc1nc(Nc2cc(F)c(C(=O)N3CCOCC3)cc2OC)ncc1C(F)(F)F [Compound 64, [4-(4-Ethoxy-5-trifluoromethyl-pyrimidin-2-ylamino)-2-fluoro-5-methoxy-phenyl]-morpholin-4-yl-methanone] | 16.9 nM
16 | CNc1nc(Nc2cc(OC)c(C(=O)N3CCOCC3)cc2OC)ncc1C(F)(F)F [Compound 65, [2,5-Dimethoxy-4-(4-methylamino-5-trifluoromethyl-pyrimidin-2-ylamino)-phenyl]-morpholin-4-yl-methanone] | 1.09 nM
17 | CCNc1nc(Nc2cc(OC)c(C(=O)N3CCC(F)(F)C3)cc2OCF)ncc1C(F)(F)F [Compound 66, (3,3-Difluoro-pyrrolidin-1-yl)-[4-(4-ethylamino-5-trifluoromethyl-pyrimidin-2-ylamino)-5-fluoromethoxy-2-methoxy-phenyl]-methanone] | 0.388 nM
18 | CNc1nc(Nc2cc(C(F)(F)F)c(C(=O)N3CCOCC3)cc2OC)ncc1C(F)(F)F [Compound 67, [5-Methoxy-4-(4-methylamino-5-trifluoromethyl-pyrimidin-2-ylamino)-2-trifluoromethyl-phenyl]-morpholin-4-yl-methanone] | 2.53 nM
19 | CNc1nc(Nc2cc(C(F)(F)F)c(C(=O)N3CCOCC3)cc2OC)ncc1Cl [Compound 68, [4-(5-Chloro-4-methylamino-pyrimidin-2-ylamino)-5-methoxy-2-trifluoromethyl-phenyl]-morpholin-4-yl-methanone] | 4.73 nM
20 | CNc1nc(Nc2cc(F)c(C(=O)N3CCOCC3)cc2Cl)ncc1C(F)(F)F [Compound 69, [5-Chloro-2-fluoro-4-(4-methylamino-5-trifluoromethyl-pyrimidin-2-ylamino)-phenyl]-morpholin-4-yl-methanone] | 9.31 nM
21 | O=C(c1cc(OCCF)c(Nc2ncc(C(F)(F)F)c(NC3CC3)n2)cc1F)N1CCOCC1 [Compound 70, [4-(4-Cyclopropylamino-5-trifluoromethyl-pyrimidin-2-ylamino)-2-fluoro-5-(2-fluoro-ethoxy)-phenyl]-morpholin-4-yl-methanone] | 0.658 nM
22 | CCNc1nc(Nc2cc(C)c(C(=O)N3CCOCC3)cc2Cl)ncc1C(F)(F)F [Compound 71, [5-Chloro-4-(4-ethylamino-5-trifluoromethyl-pyrimidin-2-ylamino)-2-methyl-phenyl]-morpholin-4-yl-methanone] | 1.08 nM
23 | CCNc1nc(Nc2cc(OCF)c(C(=O)N3CCOCC3)cc2Cl)ncc1C(F)(F)F [Compound 72, [5-Chloro-4-(4-ethylamino-5-trifluoromethyl-pyrimidin-2-ylamino)-2-fluoromethoxy-phenyl]-morpholin-4-yl-methanone] | 1.46 nM
24 | CNc1nc(Nc2cc(C)c(C(=O)N3CCOCC3)cc2F)ncc1C(F)(F)F [Compound 73, [5-Fluoro-2-methyl-4-(4-methylamino-5-trifluoromethyl-pyrimidin-2-ylamino)-phenyl]-morpholin-4-yl-methanone] | 4.97 nM
25 | CCNc1nc(Nc2cc(F)c(C(=O)N3CCOCC3)cc2Cl)ncc1C(F)(F)F [Compound 74, [5-Chloro-4-(4-ethylamino-5-trifluoromethyl-pyrimidin-2-ylamino)-2-fluoro-phenyl]-morpholin-4-yl-methanone] | 4.65 nM
